In ChEMBL document CHEMBL1127439, “Structure-activity relationship studies of central nervous system agents. 13. 4-[3-(Benzotriazol-1-yl)propyl]-1-(2-methoxyphenyl)piperazine, a new putative 5-HT1A receptor antagonist, and its analogs” (J Med Chem, 1994):

Experiments:
Mus musculus [1] = test: Effect on 8-OH-DPAT-induced hypothermia in mice (5 mg/kg) at intraperitoneal dosage of 8 mg/kg of compound after 15 mins. Values expressed as +/- SEM; assay type: functional
Mus musculus [2] = test: Effect on 8-OH-DPAT-induced hypothermia in mice (5 mg/kg) at intraperitoneal dosage of 4 mg/kg of compound after 60 mins. Values expressed as +/- SEM; assay type: functional
Mus musculus [3] = test: Effect on 8-OH-DPAT-induced hypothermia in mice (5 mg/kg) at intraperitoneal dosage of 4 mg/kg of compound after 30 mins. Values expressed as +/- SEM; assay type: functional
Rattus norvegicus [4] = test: Tested for the effect on 8-OH-DPAT-induced lower lip retraction (LLR) in rat at dosage of 8 mg/kg; assay type: functional
Rattus norvegicus [5] = test: Tested for the induction of lower lip retraction (LLR) by the investigated compounds in rat at dosage of 8 mg/kg; assay type: functional
Rattus norvegicus [6] = test: Tested for the effect on 8-OH-DPAT-induced behavior in reserpine pretreated rat against flat body posture at dosage of 8 mg/kg; assay type: functional
Mus musculus [7] = test: Effect on 8-OH-DPAT-induced hypothermia in mice (5 mg/kg) at intraperitoneal dosage of 8 mg/kg of compound after 30 mins. Values expressed as +/- SEM; assay type: functional
Rattus norvegicus [8] = test: Tested for the effect on 8-OH-DPAT-induced lower lip retraction (LLR) in rat at dosage of 4 mg/kg; assay type: functional
Rattus norvegicus [9] = species: Rattus norvegicus; test: Selectivity is the ratio between Ki values of 5-HT2 and 5-HT1A
Rattus norvegicus [10] = test: Tested for the effect on 8-OH-DPAT-induced lower lip retraction (LLR) in rat at dosage of 16 mg/kg; assay type: functional
Rattus norvegicus [11] = test: Tested for the effect on 8-OH-DPAT-induced behavior in reserpine pretreated rat against forepaw treading at dosage of 8 mg/kg; assay type: functional
Rattus norvegicus [12] = test: Tested for the effect on 8-OH-DPAT-induced behavior in reserpine pretreated rat against forepaw treading at dosage of 16 mg/kg; assay type: functional
Rattus norvegicus [13] = test: Tested for the induction of lower lip retraction (LLR) by the investigated compounds in rat at dosage of 2 mg/kg; assay type: functional
Mus musculus [14] = test: Effect on 8-OH-DPAT-induced hypothermia in mice (5 mg/kg) at intraperitoneal dosage of 16 mg/kg of compound after 60 mins; assay type: functional
Rattus norvegicus [15] = test: Tested for the induction of lower lip retraction (LLR) by the investigated compounds in rat at dosage of 16 mg/kg; assay type: functional
Mus musculus [16] = test: Effect on 8-OH-DPAT-induced hypothermia in mice (5 mg/kg) at intraperitoneal dosage of 16 mg/kg of compound after 15 mins; assay type: functional
Mus musculus [17] = test: Effect on 8-OH-DPAT-induced hypothermia in mice (5 mg/kg) at intraperitoneal dosage of 16 mg/kg of compound after 30 mins; assay type: functional
Mus musculus [18] = test: Effect on 8-OH-DPAT-induced hypothermia in mice (5 mg/kg) at intraperitoneal dosage of 8 mg/kg of compound after 45 mins. Values expressed as +/- SEM; assay type: functional
[19] = target: T1, 5-hydroxytryptamine receptor 1A (Rattus norvegicus, UniProt P19327); test: Tested in vitro for receptor binding affinity against 5-hydroxytryptamine 1A receptor using radioligand [3H]8-OH-DPAT
T1 sequence (P19327 whole entry): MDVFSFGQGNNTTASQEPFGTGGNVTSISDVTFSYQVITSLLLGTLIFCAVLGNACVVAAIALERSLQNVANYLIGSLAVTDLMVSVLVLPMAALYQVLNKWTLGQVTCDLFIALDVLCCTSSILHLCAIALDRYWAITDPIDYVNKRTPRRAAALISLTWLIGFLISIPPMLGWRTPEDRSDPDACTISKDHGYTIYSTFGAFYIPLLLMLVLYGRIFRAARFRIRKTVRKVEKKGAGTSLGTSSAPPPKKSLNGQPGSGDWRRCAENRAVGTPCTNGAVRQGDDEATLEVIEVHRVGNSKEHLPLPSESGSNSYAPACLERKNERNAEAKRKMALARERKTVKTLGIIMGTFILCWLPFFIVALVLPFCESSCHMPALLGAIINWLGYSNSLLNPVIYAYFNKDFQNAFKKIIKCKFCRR

[20] = target: Serotonin 2 (5-HT2) receptor (Rattus norvegicus, UniProt P30994+P08909+P14842); test: Tested in vitro for receptor binding affinity against 5-hydroxytryptamine 2 receptor using radioligand [3H]ketanserin; assay type: protein assay
Rattus norvegicus [21] = test: Tested for the effect on 8-OH-DPAT-induced behavior in reserpine pretreated rat against flat body posture at dosage of 16 mg/kg; assay type: functional
Mus musculus [22] = test: Effect on 8-OH-DPAT-induced hypothermia in mice (5 mg/kg) at intraperitoneal dosage of 4 mg/kg of compound after 15 mins. Values expressed as +/- SEM; assay type: functional
Mus musculus [23] = test: Effect on 8-OH-DPAT-induced hypothermia in mice (5 mg/kg) at intraperitoneal dosage of 8 mg/kg of compound after 60 mins; assay type: functional
Mus musculus [24] = test: Effect on 8-OH-DPAT-induced hypothermia in mice (5 mg/kg) at intraperitoneal dosage of 4 mg/kg of compound after 45 mins. Values expressed as +/- SEM; assay type: functional
Rattus norvegicus [25] = test: Tested for the effect on 8-OH-DPAT-induced lower lip retraction (LLR) in rat at dosage of 2 mg/kg; assay type: functional
Mus musculus [26] = test: Effect on 8-OH-DPAT-induced hypothermia in mice (5 mg/kg) at intraperitoneal dosage of 16 mg/kg of compound after 45 mins; assay type: functional
Rattus norvegicus [27] = test: Tested for the effect on 8-OH-DPAT-induced behavior in reserpine pretreated rat against flat body posture at dosage of 4 mg/kg; assay type: functional
Rattus norvegicus [28] = test: Tested for the induction of lower lip retraction (LLR) by the investigated compounds in rat at dosage of 4 mg/kg; assay type: functional
Rattus norvegicus [29] = test: Tested for the effect on 8-OH-DPAT-induced behavior in reserpine pretreated rat against forepaw treading at dosage of 4 mg/kg; assay type: functional
Mus musculus [30] = test: Effect on body temperature in mice at intraperitoneal dosage of 8 mg/kg, (compound administered 30 min before the test) after 60 min; assay type: functional
Mus musculus [31] = test: Effect on body temperature in mice at intraperitoneal dosage of 16 mg/kg, (compound administered 30 min before the test) after 90 min; assay type: functional
Mus musculus [32] = test: Effect on 8-OH-DPAT-induced hypothermia in mice (5 mg/kg) at intraperitoneal dosage of 8 mg/kg of compound after 45 mins; assay type: functional
Mus musculus [33] = test: Effect on body temperature in mice at intraperitoneal dosage of 4 mg/kg, (compound administered 30 min before the test) after 30 min; assay type: functional
Mus musculus [34] = test: Effect on 8-OH-DPAT-induced hypothermia in mice (5 mg/kg) at intraperitoneal dosage of 4 mg/kg of compound after 45 mins; assay type: functional
Mus musculus [35] = test: Effect on body temperature in mice at intraperitoneal dosage of 8 mg/kg, (compound administered 30 min before the test) after 75 min; assay type: functional
Mus musculus [36] = test: Effect on body temperature in mice at intraperitoneal dosage of 8 mg/kg, (compound administered 30 min before the test) after 90 min; assay type: functional
Mus musculus [37] = test: Effect on body temperature in mice at intraperitoneal dosage of 16 mg/kg, (compound administered 30 min before the test) after 60 min; assay type: functional
Mus musculus [38] = test: effect on body temperature in mice at intraperitoneal dosage of 16 mg/kg, (compound administered 30 min before the test) after 45 min; assay type: functional
Mus musculus [39] = test: Effect on body temperature in mice at intraperitoneal dosage of 8 mg/kg, (compound administered 30 min before the test) after 30 min; assay type: functional
Mus musculus [40] = test: Effect on 8-OH-DPAT-induced hypothermia in mice (5 mg/kg) at intraperitoneal dosage of 4 mg/kg of compound after 15 mins; assay type: functional
Mus musculus [41] = test: Effect on 8-OH-DPAT-induced hypothermia in mice (5 mg/kg) at intraperitoneal dosage of 8 mg/kg of compound after 15 mins; assay type: functional
Mus musculus [42] = test: Effect on body temperature in mice at intraperitoneal dosage of 4 mg/kg, (compound administered 30 min before the test) after 60 min; assay type: functional
Mus musculus [43] = test: Effect on 8-OH-DPAT-induced hypothermia in mice (5 mg/kg) at intraperitoneal dosage of 4 mg/kg of compound after 60 mins; assay type: functional
Mus musculus [44] = test: Effect on body temperature in mice at intraperitoneal dosage of 16 mg/kg, (compound administered 30 min before the test) after 75 min; assay type: functional
Mus musculus [45] = test: Effect on 8-OH-DPAT-induced hypothermia in mice (5 mg/kg) at intraperitoneal dosage of 8 mg/kg of compound after 30 mins; assay type: functional
Mus musculus [46] = test: Effect on body temperature in mice at intraperitoneal dosage of 8 mg/kg, (compound administered 30 min before the test) after 45 min; assay type: functional
Mus musculus [47] = test: Effect on body temperature in mice at intraperitoneal dosage of 4 mg/kg, (compound administered 30 min before the test) after 45 min; assay type: functional
Mus musculus [48] = test: Effect on body temperature in mice at intraperitoneal dosage of 4 mg/kg, (compound administered 30 min before the test) after 75 min; assay type: functional
Mus musculus [49] = test: Effect on body temperature in mice at intraperitoneal dosage of 4 mg/kg, (compound administered 30 min before the test) after 90 min; assay type: functional
Mus musculus [50] = test: Effect on 8-OH-DPAT-induced hypothermia in mice (5 mg/kg) at intraperitoneal dosage of 4 mg/kg of compound after 30 mins; assay type: functional
Mus musculus [51] = test: Effect on body temperature in mice at intraperitoneal dosage of 16 mg/kg, (compound administered 30 min before the test) after 30 min; assay type: functional

With `COc1ccccc1N1CCN(CCCCn2nnc3ccccc32)CC1` the Delta t (Mus musculus [1]) was 3.9 °C, the Delta t (Mus musculus [2]) was 3.2 °C and the Delta t (Mus musculus [3]) was 4.2 °C. For the same compound, the LLR score (Rattus norvegicus [4]) was 1.9, the LLR score (Rattus norvegicus [5]) was 0.1 and the Behavioral score (Rattus norvegicus [6]) was 8.2. It also gave a Delta t (Mus musculus [7]) of 4.1 °C, an LLR score (Rattus norvegicus [8]) of 2.1 and a Selectivity (Rattus norvegicus [9]) of 9.4. It also gave an LLR score (Rattus norvegicus [10]) of 2.4, a Behavioral score (Rattus norvegicus [11]) of 3.6 and a Behavioral score (Rattus norvegicus [12]) of 6.1. It also gave an LLR score (Rattus norvegicus [13]) of 0.2, a Delta t (Mus musculus [14]) of 5.2 °C and an LLR score (Rattus norvegicus [15]) of 0.7. It also gave a Delta t (Mus musculus [16]) of 5.3 °C, a Delta t (Mus musculus [17]) of 5.6 °C and a Delta t (Mus musculus [18]) of 3.5 °C. For the same compound, the Ki [19] was 17 nM, the Ki [20] was 160 nM and the Behavioral score (Rattus norvegicus [21]) was 12.7. For the same compound, the Delta t (Mus musculus [22]) was 3.9 °C, the Delta t (Mus musculus [23]) was 2.7 °C and the Delta t (Mus musculus [24]) was 3.8 °C. The LLR score (Rattus norvegicus [25]) was 2.2, the Delta t (Mus musculus [26]) was 5.6 °C and the Behavioral score (Rattus norvegicus [27]) was 11. It also gave an LLR score (Rattus norvegicus [28]) of 0.3 and a Behavioral score (Rattus norvegicus [29]) of 10.3.

In the case of `CCN1CCN(c2ccccc2OC)CC1`, the Selectivity (Rattus norvegicus [9]) is reported as 15, the Ki [19] is reported as 203 nM and the Ki [20] is reported as 3120 nM.

`COc1ccccc1N1CCN(CCn2nnc3ccccc32)CC1` was tested, and the Selectivity (Rattus norvegicus [9]) was 39, the Ki [19] was 42 nM and the Ki [20] was 1620 nM.

With `COc1ccccc1N1CCN(CCCn2nc3ccccc3n2)CC1` the Delta t (Mus musculus [30]) was 0.4 °C, the LLR score (Rattus norvegicus [4]) was 1.8 and the LLR score (Rattus norvegicus [5]) was 0.4. For the same compound, the Delta t (Mus musculus [31]) was 0.2 °C, the Delta t (Mus musculus [32]) was 0.9 °C and the Behavioral score (Rattus norvegicus [6]) was 11.8. For the same compound, the Delta t (Mus musculus [33]) was 0.1 °C, the LLR score (Rattus norvegicus [8]) was 1.8 and the Delta t (Mus musculus [34]) was 0.9 °C. For the same compound, the Delta t (Mus musculus [35]) was 0.3 °C, the Delta t (Mus musculus [36]) was 0.3 °C and the Delta t (Mus musculus [37]) was 0.3 °C. For the same compound, the Delta t (Mus musculus [38]) was 0.3 °C, the Selectivity (Rattus norvegicus [9]) was 66 and the LLR score (Rattus norvegicus [10]) was 2.2. For the same compound, the Behavioral score (Rattus norvegicus [11]) was 4.8, the Behavioral score (Rattus norvegicus [12]) was 4 and the Delta t (Mus musculus [39]) was 0.1 °C. The LLR score (Rattus norvegicus [13]) was 0.2, the Delta t (Mus musculus [40]) was 1.8 °C and the Delta t (Mus musculus [14]) was 0.9 °C. It also gave a Delta t (Mus musculus [41]) of 2 °C, an LLR score (Rattus norvegicus [15]) of 0.3 and a Delta t (Mus musculus [42]) of 0.1 °C. For the same compound, the Delta t (Mus musculus [16]) was 2.6 °C, the Delta t (Mus musculus [43]) was 0.6 °C and the Delta t (Mus musculus [17]) was 2 °C. For the same compound, the Delta t (Mus musculus [44]) was 0.4 °C, the Ki [19] was 24 nM and the Delta t (Mus musculus [45]) was 1.5 °C. The Ki [20] was 1580 nM, the Behavioral score (Rattus norvegicus [21]) was 12.4 and the Delta t (Mus musculus [46]) was 0.2 °C. The Delta t (Mus musculus [23]) was 0.7 °C, the Delta t (Mus musculus [47]) was 0.3 °C and the LLR score (Rattus norvegicus [25]) was 2.3. The Delta t (Mus musculus [26]) was 1.3 °C, the Delta t (Mus musculus [48]) was 0.2 °C and the Behavioral score (Rattus norvegicus [27]) was 13.8. It also gave a Delta t (Mus musculus [49]) of 0.1 °C, an LLR score (Rattus norvegicus [28]) of 0.2 and a Delta t (Mus musculus [50]) of 1.4 °C. It also gave a Behavioral score (Rattus norvegicus [29]) of 8 and a Delta t (Mus musculus [51]) of 0.2 °C.
